The test system of one experiment is NFκB. As to conditions: multiple myeloma cells, Hideshima et al., 2002; cited from earlier work.
The test system of experiment [1] is HCC827 cells. In words: FACS cell cycle analysis (PI DNA content), Compound III with EGFR inhibitor. It is filed as cell-based, human. Here is the method: (§1) The effects of Compound III and its nitroso metabolite on the cell cycle in cancer cell lines in combination with second agents were determined.
(§2) Compound III and Compound III-1 compounds were tested in the presence of the second agent according the schedule indicated in the Table below.
(§3) Cell Culture: Triple negative MDA-MB-468 human breast carcinoma, U251 human glioblastoma and lung adenocarcinoma HCC827 cells were cultured in Dulbecco Modified Eagle Medium with 10% fetal bovine serum. Cells were plated at a seeding density 10^5 per P100 or at 10^4 per P60 in growth media and incubated 12-18 h at 37° C., 5% CO2. Compounds with and without secondary agent (see Table 1) were added as a single dose for 72 hours. DMSO was used as a control. Following treatment, cells were analyzed with BrdU ELISA Assay (Roche Applied Science), FACS based cell cycle assay or TUNEL.
(§4) Compounds: Compound III was dissolved directly from dry powder in DMSO (cat #472301, Sigma-Aldrich) for each separate experiment, then the entire volume of the stock solution was used to prepare 111 nM, 313 nM and 1 μM working concentrations in cell culture medium to avoid any possibility of precipitation and the corresponding loss of compound.
(§5) PI Exclusion, Cell Cycle and TUNEL Assays (FACS): After the addition of drugs and incubation, cells were taken for counting and PI (Propidium Iodide) exclusion assay. One part of the cells was centrifuged and resuspended in 0.5 ml ice-cold PBS containing 5 μg/ml of PI. The other part of the cells was fixed in ice-cold 70% ethanol and stored in a freezer overnight. For cell cycle analysis, cells were stained with propidium iodide (PI) using standard procedures. Cellular DNA content was determined by flow cytometry using BD LSRII FACS, and the percentages of cells in G1, S or G2/M were determined using ModFit software.

The test system of experiment [2] is HCC827 cells. In words: TUNEL apoptosis assay (FACS), Compound III with EGFR inhibitor. It is filed as cell-based, human. The note with it: GFT 2 nM + 201 0 μM. Here is the method:
as §3, §4
(§6) To detect apoptosis, the cells were labeled with the “In Situ Cell Death Detection Kit, Fluorescein” (Roche Diagnostics Corporation, Roche Applied Science, Indianapolis, Ind.). […] All cell samples were analyzed with a BD LSR II (BD Biosciences, San Jose, Calif.). […]

Experiment [3] concerns OVCAR-3 xenograft. As to the kind of experiment: human ovarian adenocarcinoma OVCAR-3 xenograft model of cancer. It is filed as in vivo, mice. An excerpt: Xenograft cancer models can be employed to measure the effects of treatment of PARP and co-regulated gene modulators on cancer growth and progression.
Moreover, ovarian adenocarcinoma OVCAR-3 cells produce IGF-I and IGF-II, and express IGF1R, supporting the existence of an autocrine loop.
(In xenograft studies the graft and the host belong to different species.)

Experiment [4] concerns MDA-MB-468 cells. In words: FACS cell cycle analysis (PI DNA content), Compound III with IGF1R inhibitor. It is filed as cell-based, human. The note with it: for G1 / G2/M / S / Sub-G1: MDA-MB-468. Here is the method:
as §1, §2, §3, §4, §5

A further experiment has as its system NF-κB. The note with it: HeLa cells; cited from earlier work.
The next experiment relates to OVCAR-4 cells. As to conditions: OVCAR-4 cell line, Gotlieb et al., 2006; cited from earlier work.
Another experiment deals with OVCAR-3 cells. The note with it: OVCAR-3 cell line, Gotlieb et al., 2006; cited from earlier work.
The test system of experiment [5] is OVCAR-3 xenograft. As to conditions: previous studies, Gotlieb et al., 2006; cited from earlier work.
The subject of experiment [6] is MDA-MB-468 cells. As to the kind of experiment: cell counting and PI exclusion assay (cell survival), Compound III with IGF1R inhibitor. It is filed as cell-based, human. The method, then:
as §3, §4
PI Exclusion, Cell Cycle and TUNEL Assays (FACS): After the addition of drugs and incubation, cells were taken for counting and PI (Propidium Iodide) exclusion assay. One part of the cells was centrifuged and resuspended in 0.5 ml ice-cold PBS containing 5 μg/ml of PI. […] Cellular DNA content was determined by flow cytometry using BD LSRII FACS, and the percentages of cells in G1, S or G2/M were determined using ModFit software.

In experiment [7] the test system is MDA-MB-468 cells. In words: BrdU labeling assay (FACS / ELISA), Compound III with IGF1R inhibitor. It is filed as cell-based, human. Here is the method:
as §3, §4
Bromodeoxyuridine (BrdU) labeling assay and FACS-based cell cycle analysis: 50 μl of BrdU (Sigma Chemical Co., St. Louis, Mo.) stock solution (1 mM) was added to achieve final concentration of 10 μM BrdU. Then cells were incubated for 30 min at 37° C. and fixed in ice-cold 70% ethanol and stored at 4° C. overnight. […] All cell samples were analyzed with a BD LSR II (BD Biosciences, San Jose, Calif.). […]
(In general: Dividing cells build labelled thymidine or BrdU into new DNA.)

For experiment [8], the system named is MDA-MB-468 cells. In words: TUNEL apoptosis assay (FACS), Compound III with IGF1R inhibitor. It is filed as cell-based, human. The method, then: as §3, §4, §6

“Also recorded” adds a separate entry of the source.

In the case of `O=C(Nc1cc(Cl)cc2c1[nH]c1cnccc12)c1cccnc1` [PS-1145], the NFκB activation entry in the experiment on NFκB is given as “blocked NFκB activation”.

As to `COc1cc2ncnc(Nc3ccc(F)c(Cl)c3)c2cc1OCCCN1CCOCC1` [GFT], in the experiment with HCC827 cells [1] (HCC827, GFT 2 nM + 201 0 μM), the G1 stood at 51.0, the G2/M was found to be 9.2, the S came to 34.4 and the Sub-G1 amounted to 3.4. Moreover, the “TUNEL(+)” value in the experiment on HCC827 cells [2] is 6.2.

With `NC(=O)c1ccc(I)c([N+](=O)[O-])c1` [Compound III], the “potentiation of the activity of the EGF-R inhibitor IRESSA” value in the experiment on HCC827 cells [1] (HCC827 cell line) is on record as “potentiate the activity of the EGF-R inhibitor IRESSA®”. The “tumor growth, combination of PARP inhibitor and IGF1R inhibitor” value with OVCAR-3 xenograft [3] (Compound III combined with NVP-AEW541, expected from the single-agent data) is “inhibit tumor growth in mice even further”. Also, the survival of mice entry in the experiment with OVCAR-3 xenograft [3] (OVCAR-3 xenograft, FIG. 18) is reported as “improve survival of mice; also recorded: improval of survival of mice”. The tumor growth result in the experiment on OVCAR-3 xenograft [3] (PARP1 inhibition by Compound III, OVCAR-3 xenograft in mice, FIG. 18) is recorded as “inhibit tumor growth”. Further, in the experiment with MDA-MB-468 cells [4] (triple negative breast cancer cells MDA-MB-468, FIG. 19), the “potentiation of the activity of IGF-1R inhibitor Picropodophyllin (PPP)” value was “potentiates the activity of IGF-1R inhibitor Picropodophyllin (PPP)”.

In the case of `CCc1c2c(nc3ccc(O)cc13)-c1cc3c(c(=O)n1C2)COC(=O)[C@]3(O)CC` [SN38, 7-ethyl-10-hydroxycamptothecin], in the experiment on NF-κB, the “NF-κB nuclear translocation and activation of NF-κB target genes” value was “induce NF-κB nuclear translocation and activation of NF-κB target genes”.

On to `COc1cccc2c1C(=O)c1c(O)c3c(c(O)c1C2=O)C[C@@](O)(C(=O)CO)C[C@@H]3O[C@H]1C[C@H](N)[C@H](O)[C@H](C)O1` [doxorubicin], for which the “NF-κB nuclear translocation and activation of NF-κB target genes” value in the experiment on NF-κB was “induce NF-κB nuclear translocation and activation of NF-κB target genes”.

As for `Nc1ncnc2c1c(-c1cccc(OCc3ccccc3)c1)cn2C1CC(CN2CCC2)C1` (stereo not shown) [NVP-AEW541], the “growth of the cells” value in the experiment with OVCAR-4 cells and with OVCAR-3 cells was “inhibited growth of the cells” in each case. For the same compound, the “growth of OVCAR-3 tumor” value in the experiment on OVCAR-3 xenograft [5] was “can inhibit growth of OVCAR-3 tumor”.

Consider `CC(C)C[C@H](NC(=O)[C@H](Cc1ccccc1)NC(=O)c1cnccn1)B(O)O` [bortezomib], for which, in the experiment with NFκB, the NFκB activation entry was “blocked NFκB activation”.

On to `COc1cc([C@@H]2c3cc4c(cc3[C@H](O)[C@H]3COC(=O)[C@@H]23)OCO4)cc(OC)c1OC` [Picropodophyllin], for which the values for the G1 with MDA-MB-468 cells [4] (PPP 200 nM + 201 0 uM) and in the experiment on MDA-MB-468 cells [4] (PPP 400 nM + 201 0 uM) were 51.42 and 37.29, respectively. In addition, the values for the G2/M with MDA-MB-468 cells [4] (PPP 200 nM + 201 0 uM) and in the experiment on MDA-MB-468 cells [4] (PPP 400 nM + 201 0 uM) were 15.01 and 20.17, respectively. The S in the experiment on MDA-MB-468 cells [4] (PPP 200 nM + 201 0 uM) is reported as 30.22; in the experiment on MDA-MB-468 cells [4] (PPP 400 nM + 201 0 uM), 25.32. In addition, the Sub-G1 in the experiment on MDA-MB-468 cells [4] (PPP 200 nM + 201 0 uM) worked out at 1.22; with MDA-MB-468 cells [4] (PPP 400 nM + 201 0 uM), 7.77. For the same compound, the “Vital Cell” value in the experiment on MDA-MB-468 cells [6] (PPP 200 nM + 201 0 uM) came to 89; in the experiment on MDA-MB-468 cells [6] (PPP 400 nM + 201 0 uM) it was 60. The “BrdU(−) S” value in the experiment with MDA-MB-468 cells [7] (PPP 200 nM + 201 0 uM) came to 2.13; in the experiment on MDA-MB-468 cells [7] (PPP 400 nM + 201 0 uM) it was 9.45. Moreover, the entries for the “TUNEL(+)” value in the experiment with MDA-MB-468 cells [8] (PPP 200 nM + 201 0 uM) and in the experiment with MDA-MB-468 cells [8] (PPP 400 nM + 201 0 uM) were 0.9 and 4.1, respectively.

Values taken from patent US20090275608A1, “Methods of diagnosing and treating parp-mediated diseases” (BiPar Sciences, Inc., priority 2008, published 2009).
